The values below come from patent US12187722B2, “Small molecule inhibitors of TEAD transcription factors” (The General Hospital Corporation, priority 2019, dated 2025).

SMILES strings stand for the structures. “And” between values parts separate entries of the source, which are not always exact repeats. Equal values may be shown once.

One may read the inhibition as the relative decrease from the control value, in per cent.

Chain of TEAD2 (Q15562 whole entry): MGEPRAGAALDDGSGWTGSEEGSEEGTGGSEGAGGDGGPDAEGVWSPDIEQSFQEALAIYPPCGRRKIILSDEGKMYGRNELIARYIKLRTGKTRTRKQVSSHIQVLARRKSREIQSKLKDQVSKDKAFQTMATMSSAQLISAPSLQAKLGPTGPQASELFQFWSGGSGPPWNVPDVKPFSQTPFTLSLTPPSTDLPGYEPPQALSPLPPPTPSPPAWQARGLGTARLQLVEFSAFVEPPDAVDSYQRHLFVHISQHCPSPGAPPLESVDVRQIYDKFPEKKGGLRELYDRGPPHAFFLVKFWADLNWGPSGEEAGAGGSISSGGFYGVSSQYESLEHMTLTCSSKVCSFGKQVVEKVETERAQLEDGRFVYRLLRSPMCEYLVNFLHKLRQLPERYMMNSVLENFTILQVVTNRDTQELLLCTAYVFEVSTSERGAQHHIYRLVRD

This assay addresses TEAD2 (Homo sapiens (Human), UniProt Q15562). The assay is described as follows: In vitro palmitoylation (TEAD2 autopalmitoylation, streptavidin blot). Particulars: compound at 10 μM; Table 2. The class given is biochemical. Put shortly:
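Autopalmitoylation read by streptavidin-HRP Western blot after CuSO4/TBTA/TCEP click with 100 μM biotin-azide, 1 h RT, with His-HRP probed separately. Before that, TEAD2 protein (GST or His6, 500 ng) given compound for 15 min then 1 μM alkyne palmitoyl-CoA for 30 min; percent inhibition versus DMSO-treated samples.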
For the molecule `CN(c1ccc(C23CC4CC(CC(C4)C2)C3)cc1)c1ccc(N(C)c2ncccc2C(=O)O)cc1C(F)(F)F` [Compound 156], the inhibition at 10 µM is 92%. Same read-out and setting: as for `O=C(Nc1ccc(Nc2ccccc2C(=O)O)cc1)c1ccc(C23CC4CC(CC(C4)C2)C3)cc1` [Compound 157], the figure is 80%. For `CN(c1ccc(N(C)c2ccc(C34CC5CC(CC(C5)C3)C4)cc2)c(C(F)(F)F)c1)c1ccccc1C(=O)O` [Compound 158], the inhibition at 10 µM is 100%. Same read-out and setting: to `CCCCN(CCCC)C(=O)c1ccc(Nc2ccccc2C(=O)O)cc1` [Compound 159] belongs 41%. As to `CN(c1ccc(C23CC4CC(CC(C4)C2)C3)cc1)c1ccc(N(C)c2ccccc2C(=O)O)cn1` [Compound 160], the inhibition at 10 µM is 84%.

`CCN(c1ccc(N(CC)c2ccccc2C(=O)O)cc1)c1ccc(C23CC4CC(CC(C4)C2)C3)cc1` [Compound 163]: the inhibition at 10 µM was found to be 85%.

As for `CC(=O)N(c1ccc(N(C(C)=O)c2ccccc2C(=O)O)cc1)c1ccc(C23CC4CC(CC(C4)C2)C3)cc1` [Compound 164], the inhibition at 10 µM came out at 20%. As to `CN(c1ccc(Nc2ccc(C34CC5CC(CC(C5)C3)C4)cc2)cc1)c1ccccc1C(=O)O` [Compound 165], the “% of inhibition of TEAD2 palmitoylation at 10 μM” value (“% of inhibition … at 10 μM” for short) was 85%. As for `O=C(O)c1ccccc1Nc1ccc(Oc2ccc(C34CC5CC(CC(C5)C3)C4)cc2Cl)cc1` [Compound 166], the inhibition at 10 µM was 98%.

On to `O=C(NC12CC3CC(CC(C3)C1)C2)c1ccc(Nc2ccccc2C(=O)O)cc1` [Compound 167], for which the inhibition at 10 µM was 43%. Still for that read-out and setting: to `CCCCN(CCCC)Cc1ccc(Nc2ccc(Nc3ccccc3C(=O)O)cc2)cc1` [Compound 169] belongs 42%; to `CCCCN(CCCC)c1ccc(NC(=O)c2ccc(Nc3ccccc3C(=O)O)cc2)cc1` [Compound 170], 62%.

Turning to `CCN(c1ccc(N(C)c2ccc(C34CC5CC(CC(C5)C3)C4)cc2)cc1)c1ccccc1C(=O)O` [Compound 171], the inhibition at 10 µM is 75%. On the same count and under the same terms, to `CN(c1ccc(Nc2ccccc2C(=O)O)cc1)c1ccc(C23CC4CC(CC(C4)C2)C3)cc1` [Compound 172] belongs 100%. Same read-out and setting: as for `Cn1c(-c2ccc(Nc3ccc(C45CC6CC(CC(C6)C4)C5)cc3)cc2)nc2cccc(C(=O)O)c21` [Compound 173], the figure is 51%; as for `CCCCN(c1ccccc1)c1ccc(Nc2ccc(Nc3ccccc3C(=O)O)cc2)cc1` [Compound 174], 85%; as for `CCCCN(CCCC)C(=O)c1ccc(Nc2ccc(Nc3ccccc3C(=O)O)cc2)cc1` [Compound 175], 70%.

As to `O=C(NC12CC3CC(CC(C3)C1)C2)c1ccc(Nc2ccc(Nc3ccccc3C(=O)O)cc2)cc1` [Compound 176], the “% of inhibition … at 10 μM” value amounted to 89%.

As for `CC12CC3CC(C)(C1)CC(c1ccc(Nc4ccc(Nc5ccccc5C(=O)O)cc4)cc1)(C3)C2` [Compound 177], the inhibition at 10 µM worked out at 56%.

With `O=C(Nc1ccc(Nc2ncccc2C(=O)O)cc1)Nc1ccc(C23CC4CC(CC(C4)C2)C3)cc1` [Compound 180], the inhibition at 10 µM was 81%. In the case of `O=C(CNc1ccc(Nc2ncccc2C(=O)O)cc1)Nc1ccc(C23CC4CC(CC(C4)C2)C3)cc1` [Compound 181], the “% of inhibition … at 10 μM” value is given as 41% and the inhibition at 10 µM is 49%. With `O=C(Nc1ccc(Nc2cccc(C(=O)O)n2)cc1)Nc1ccc(C23CC4CC(CC(C4)C2)C3)cc1` [Compound 182], the inhibition at 10 µM was found to be 54%.

Regarding `O=C(Nc1ccc(C23CC4CC(CC(C4)C2)C3)cc1Cl)c1ccc(Nc2ncccc2C(=O)O)cc1` [Compound 183], the “% of inhibition … at 10 μM” value was found to be 96% and the inhibition at 10 µM stood at 100%. Turning to `O=C(Cc1ccc(Nc2ncccc2C(=O)O)cc1)Nc1ccc(C23CC4CC(CC(C4)C2)C3)cc1` [Compound 184], the inhibition at 10 µM was determined as 71%.

Take `O=C(O)c1cccc(Nc2ccc(C(=O)Nc3ccc(C45CC6CC(CC(C6)C4)C5)cc3)cc2)c1` [Compound 185]: the “% of inhibition … at 10 μM” value was 66% and 91%. For the molecule `O=C(O)c1ccccc1Nc1ccc(N(c2ccc(C34CC5CC(CC(C5)C3)C4)cc2)C(F)(F)F)cc1` [Compound 186], the inhibition at 10 µM is 76%. As for `CCCCN(c1ccccc1)c1ccc(N(C)c2ccc(N(C)c3ccccc3C(=O)O)cc2)cc1` [Compound 187], the inhibition at 10 µM turned out to be 57%. On the same count and under the same terms, as for `O=C(O)c1cccnc1Nc1ccc(S(=O)(=O)Nc2ccc(C34CC5CC(CC(C5)C3)C4)cc2)cc1` [Compound 188], the figure is 101%; as for `O=C(Nc1ccc(Nc2ccccc2C(=O)O)cc1)Nc1ccc(C23CC4CC(CC(C4)C2)C3)cc1` [Compound 189], 34%. The same measure, in the same setting: to `O=C(O)c1ccccc1Nc1ccc(S(=O)(=O)Nc2ccc(C34CC5CC(CC(C5)C3)C4)cc2)cc1` [Compound 190] belongs 85%; to `CN(c1ccc(C#Cc2ccc(C34CC5CC(CC(C5)C3)C4)cc2)cc1)c1ccccc1C(=O)O` [Compound 191], 85%. Same read-out and setting: to `CN(C(=O)c1ccc(Nc2ccccc2C(=O)O)cc1)c1ccc(C23CC4CC(CC(C4)C2)C3)cc1` [Compound 192] belongs 99%. Regarding `CN(c1ccc(Nc2cccc(C(=O)O)n2)cc1)c1ccc(C23CC4CC(CC(C4)C2)C3)cc1` [Compound 193], the inhibition at 10 µM came to 86%. The same measure, in the same setting: to `O=C(O)c1cccc(Nc2ccc(S(=O)(=O)Nc3ccc(C45CC6CC(CC(C6)C4)C5)cc3)cc2)n1` [Compound 194] belongs 20%.

As to `CCCCN(c1ccccc1)c1ccc(NC(=O)c2ccc(Nc3ccccc3C(=O)O)cc2)cc1` [Compound 195], the inhibition at 10 µM came to 0%. The same measure, in the same setting: to `CN(c1ccc(Oc2ccc(C34CC5CC(CC(C5)C3)C4)cc2)cc1)c1ncccc1C(=O)O` [Compound 196] belongs 100%; to `O=C(Nc1ccccc1C(=O)O)c1ccc(Nc2ccc(C34CC5CC(CC(C5)C3)C4)cc2)cc1` [Compound 197], 100%.

On to `O=C(O)c1cccc(NC(=O)c2ccc(Nc3ccc(C45CC6CC(CC(C6)C4)C5)cc3)cc2)c1` [Compound 198], for which the inhibition at 10 µM is 99%.

In the case of `Cn1c(-c2ccc(Nc3ccc(C45CC6CC(CC(C6)C4)C5)cc3)cc2)nc2c(C(=O)O)cccc21` [Compound 199], the inhibition at 10 µM came out at 6%. Still for that read-out and setting: to `CN(c1ccc(N2CC(Oc3ccc(C45CC6CC(CC(C6)C4)C5)cc3)C2)cc1)c1ccccc1C(=O)O` [Compound 200] belongs 32%. Take `CC12CC3CC(C)(C1)CC(c1ccc(Nc4ccc(Nc5cccc(C(=O)O)n5)cc4)cc1)(C3)C2` [Compound 201]: the inhibition at 10 µM stood at 43%. For `CCCCN(c1ccccc1)c1ccc(Nc2ccc(Nc3cccc(C(=O)O)n3)cc2)cc1` [Compound 202], the inhibition at 10 µM was 49%. Still for that read-out and setting: as for `O=C(O)c1cccc(Nc2ccc(Oc3ccc(C45CC6CC(CC(C6)C4)C5)cc3Cl)cc2)n1` [Compound 203], the figure is 95%. Same read-out and setting: to `CN(c1ccc(N(c2ccc(C(=O)O)cn2)c2ccc(C(=O)O)cn2)cc1)c1ccc(C23CC4CC(CC(C4)C2)C3)cc1` [Compound 204] belongs 99%; to `O=C(O)c1ccccc1Nc1ccc(Nc2ccc(OCC34CC5CC(CC(C5)C3)C4)cc2)cc1` [Compound 205], 74%; to `CN(C(=O)c1ccc(Nc2cccc(C(=O)O)n2)cc1)c1ccc(C23CC4CC(CC(C4)C2)C3)cc1` [Compound 206], 52%. As for `CN(c1ccc(C23CC4CC(CC(C4)C2)C3)cc1)S(=O)(=O)c1ccc(Nc2ncccc2C(=O)O)cc1` [Compound 207], the inhibition at 10 µM came to 99%.

With `CN(c1ccc(OCC23CC4CC(CC(C4)C2)C3)cc1)c1ccc(N(C)c2ccccc2C(=O)O)cc1` [Compound 208], the inhibition at 10 µM was 100%. The same measure, in the same setting: to `CC(C)c1ccccc1-c1ccc(Nc2ccc(Nc3cccc(C(=O)O)n3)cc2)cc1` [Compound 209] belongs 54%.

For the molecule `Cn1c(-c2cccc(Nc3ccc(C45CC6CC(CC(C6)C4)C5)cc3)c2)nc2cccc(C(=O)O)c21` [Compound 210], the inhibition at 10 µM was determined as 100%.

Turning to `CC(C)c1ccccc1-c1ccc(NC(=O)c2ccc(Nc3ccccc3C(=O)O)cc2)cc1` [Compound 211], the inhibition at 10 µM is 67%. On the same count and under the same terms, as for `O=C(Nc1ccc(C23CC4CC(CC(C4)C2)C3)cc1)c1ccc(Oc2cccc(C(=O)O)n2)cc1` [Compound 212], the figure is 77%; as for `O=C(Cc1ccc(Nc2ccc(C34CC5CC(CC(C5)C3)C4)cc2)cc1)Nc1ccccc1C(=O)O` [Compound 213], 90%. Turning to `O=C(Nc1ccc(C23CC4CC(CC(C4)C2)C3)cc1)c1cccc(Nc2ccccc2C(=O)O)c1` [Compound 214], the “% of inhibition … at 10 μM” value came out at 73% and the inhibition at 10 µM was determined as 88%. On to `O=C(Nc1ccc(C23CC4CC(CC(C4)C2)C3)cc1)c1ccc(Oc2ccccc2C(=O)O)cc1` [Compound 215], for which the inhibition at 10 µM was determined as 87%.

`CC12CC3CC(C)(C1)CC(c1ccc(NC(=O)c4ccc(Nc5ccccc5C(=O)O)cc4)cc1)(C3)C2` [Compound 216]: the inhibition at 10 µM was found to be 89%. On the same count and under the same terms, to `O=C(Nc1ncccc1C(=O)O)c1ccc(Nc2ccc(C34CC5CC(CC(C5)C3)C4)cc2)cc1` [Compound 217] belongs 55%; to `CN(c1ccc(N2CCN(c3ccc(C45CC6CC(CC(C6)C4)C5)cc3)CC2)cc1)c1ccccc1C(=O)O` [Compound 218], 0%. On the same count and under the same terms, to `O=C(NC12CC3CC(CC(C3)C1)C2)c1ccc(Nc2ccc(Nc3cccc(C(=O)O)n3)cc2)cc1` [Compound 219] belongs 0%; to `O=C(CCc1ccc(Nc2ccccc2C(=O)O)cc1)Nc1ccc(C23CC4CC(CC(C4)C2)C3)cc1` [Compound 220], 10%. On the same count and under the same terms, as for `CN(C(=O)c1ccc(Nc2ccc(C34CC5CC(CC(C5)C3)C4)cc2)cc1)c1ccccc1C(=O)O` [Compound 221], the figure is 61%.
